{"source": "a melting point compilation (Tetko et al.; mined from patent text by program, amines drawn as free bases though some values may be those of a salt)"}
{"units": {"melting point": "°C"}}
{"molecule": "O=C(O)CN1C(=O)C(=Cc2ccc(OCc3ccccc3)c(OCc3ccccc3)c2)SC1=S", "melting point": "235 to 238"}
{"molecule": "NC(=O)CNc1c(F)cc([N+](=O)[O-])cc1F", "melting point": "160 to 162"}
{"molecule": "N#Cc1cc([N+](=O)[O-])ccc1Oc1ccc(Cl)cc1Cl", "melting point": 154}
{"molecule": "CCOC(=O)C=Cc1c(OCc2ccc(OCc3nc(-c4ccccc4)oc3C)cc2)ccc2ccccc12", "melting point": "73 to 74"}
{"molecule": "CN(C)c1ccc(/C=C/c2ccccc2F)c2ccccc12", "melting point": "56 to 58"}
{"molecule": "O=C(c1ccccc1)N1CCc2cc(S(=O)(=O)N3CC(c4ccccc4)NC3=O)ccc21", "note": "(stereo unspecified)", "melting point": 127}
{"molecule": "c1ccc(-c2ccc(-c3nc4n(n3)CCCc3ccccc3-4)cc2)cc1", "melting point": "135 to 137"}
{"molecule": "CCOCn1c(N)c(C#N)c2c(N)ncnc21", "melting point": "229 to 230"}
{"molecule": "COc1ccc(-c2c(CO)c(CO)c3n2Cc2ccccc2C3)cc1", "melting point": "174 to 176"}
{"molecule": "Cc1nc2c(N)nc3ccccc3c2n1CCCCNC(=O)C1CCCC1", "melting point": "169 to 170"}
{"molecule": "CS(=O)(=O)NC1CC(N)(C(=O)O)C2C(C(=O)O)C12", "note": "(stereo unspecified)", "melting point": "> 275"}
{"molecule": "COC(=O)C1c2ccccc2C2C(=O)NCCN21", "note": "(stereo unspecified)", "melting point": "165 to 167"}
{"molecule": "C=CCOC(=O)/C(=N\\O)c1csc(N)n1", "melting point": "184 to 185"}
{"molecule": "CC(=O)Nc1ccc(C=O)cc1Cl", "melting point": "110 to 113"}
{"molecule": "CCOC(=O)Nc1cnc(NCCCOc2cccc(CN3CCCCC3)c2)[nH]c1=O", "melting point": "171 to 173"}
{"molecule": "CC(=O)Nc1ccc(Cl)c2c1CN(C)C2", "melting point": "147 to 150"}
{"molecule": "O=C(O)CNC(=O)C(Cc1ccccc1)P(=O)(O)O", "note": "(stereo unspecified)", "melting point": 250}
{"molecule": "O=C1CC(c2ccc(Cl)cc2)Oc2ccccc21", "note": "(stereo unspecified)", "melting point": "96 to 98"}
{"molecule": "CCc1nc2nc(C)nn2c(O)c1CCC(C)CC(C)(C)C", "note": "(stereo unspecified)", "melting point": "183 to 185"}
{"molecule": "CCCCCCCCCCCCNC(=O)CC(Br)C(=O)O", "note": "(stereo unspecified)", "melting point": "62 to 70"}
{"molecule": "CCCCCc1c(C(O)CC)nc(C(C)C)c(CO)c1-c1ccc(F)cc1", "note": "(stereo unspecified)", "melting point": "89 to 90"}
{"molecule": "O=c1[nH]c2ccc(Cl)cc2n1CCCl", "melting point": 164}
{"molecule": "O=Cc1ccc(OCC(F)(F)F)c(O)c1", "melting point": "133 to 135"}
{"molecule": "CCCC[C@@H](C)C[C@@H](CC(=O)OC(C)(C)C)C(=O)N1C(=O)O[C@@H](c2ccccc2)[C@H]1C", "melting point": "84 to 86"}
{"molecule": "O=Cc1cc(C(=O)c2ccccc2)ccc1[N+](=O)[O-]", "melting point": 96.7}
{"molecule": "O=C(CBr)c1cc(O)c(O)c([N+](=O)[O-])c1", "melting point": "138 to 140"}
{"molecule": "CCOC(=O)C1=C(N)N=C(OCC)C(C(=O)OCC)C1c1ccc(SC)cc1", "note": "(stereo unspecified)", "melting point": 132}
{"molecule": "CCN(CC)CCOc1ccc(Nc2nc(N)c(C(=O)c3cccc(OC)c3)s2)cc1", "melting point": "118 to 123"}
{"molecule": "CCCCCCCCCCCCCCCCCC(=O)N[C@@H](C)C(=O)O", "melting point": 102}
{"molecule": "CC(C)(C)C(=O)OCOC(=O)Cc1ccc(O)cc1", "melting point": "159 to 161"}
{"molecule": "Cc1cn(C2CC(N=[N+]=[N-])C(CO)O2)c(=O)nc1N", "note": "(stereo unspecified)", "melting point": "85 to 88"}
{"molecule": "CCCCCCC(=O)NNC(=O)OC", "melting point": "74 to 75"}
{"molecule": "Cc1cc(N2CCN(Cc3ccc(C(F)(F)F)cc3)C2=O)sc1C(=O)NCc1cccnc1", "melting point": "102 to 104"}
{"molecule": "Cc1c(Cc2nc(C(=O)O)cs2)n(S(=O)(=O)c2cccc(C(C)(C)C)c2)c2ccc(C(F)(F)F)cc12", "melting point": 60}
{"molecule": "CN1C(=O)C2(COc3cc4c(cc32)OCCO4)c2c(-c3cnn(C)c3)cccc21", "note": "(stereo unspecified)", "melting point": "220 to 222"}
{"molecule": "CC(C)(C)[N+]([O-])=Cc1cc(Cl)cc(Cl)c1O", "melting point": 103}
{"molecule": "Cc1ccc(Oc2c(N3C(C)CCC3C)cc(C(=O)O)cc2S(N)(=O)=O)cc1", "note": "(stereo unspecified)", "melting point": "191 to 193"}
{"molecule": "OCc1ccc(/C=C/c2ccc[nH]2)cc1", "melting point": "186 to 189"}
{"molecule": "CC(CCCC(C)(C)O)C1CCC2C3=CC=C4CC(O)CCC4(C)C3CCC21C", "note": "(stereo unspecified)", "melting point": "122 to 125"}
{"molecule": "O=C(O)CNC1=Nc2ccc(Cl)cc2C(c2ccccc2)=NC1", "melting point": "215 to 220"}
{"molecule": "Cc1ccc2nc(-c3ccccc3C#N)n(C)c(=O)c2c1", "melting point": "157 to 158"}
{"molecule": "Nc1ncnc2c1ncn2Cc1oc2ccc(Br)cc2c(=O)c1-c1ccc(F)cc1", "melting point": "238 to 242"}
{"molecule": "O=C(CCc1ccc(NC(=O)C(F)(F)F)c([N+](=O)[O-])c1)Nc1ccc(Cl)cc1Cl", "melting point": "193 to 194"}
{"molecule": "N#Cc1cccc(-c2ccc(O)cc2)c1", "melting point": "135 to 141"}
{"molecule": "COc1cc2occ(C(=O)Nc3cccnc3)c2cc1Br", "melting point": "210 to 212"}
{"molecule": "CC(=O)NCC1CC1c1c(C#N)ccc2nn(C)cc12", "note": "(stereo unspecified)", "melting point": "189 to 192"}
{"molecule": "OC[C@H]1OC(O)[C@H](O)[C@H](F)[C@@H]1O", "note": "(stereo partly specified)", "melting point": "120 to 122"}
{"molecule": "COc1ccc(CN2Cc3c(-c4nc(C5CC5)no4)ncn3-c3ccc(OC)cc3C2=O)c(OC)c1", "melting point": "> 240"}
{"molecule": "CC(C)(C)S(=O)(=O)c1cccc(-c2nc(=O)c3ccccc3s2)n1", "melting point": "234 to 235"}
{"molecule": "COc1ccccc1SCC1NCCS1", "note": "(stereo unspecified)", "melting point": "111 to 112"}
{"molecule": "CC(n1cncn1)C(O)(COc1ccc(Cl)cc1)C(C)(C)C", "note": "(stereo unspecified)", "melting point": "80 to 104"}
